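Results reflect a 48-hour exposure of cells in 96-well plates to compound at five concentrations. Definition used: TGI = concentration required for complete inhibition of growth.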
How the values were obtained:
Test in all cases: NCI-60 cell line screen, 48 h
[1] = tested on: A498 renal
[2] = tested on: A549 NSCLC
[3] = tested on: CCRF-CEM leukemia
[4] = tested on: EKVX NSCLC
[5] = tested on: HL-60(TB) leukemia
[6] = tested on: K-562 leukemia
[7] = tested on: KM12 colon
[8] = tested on: M14 melanoma
[9] = tested on: MDA-N
[10] = tested on: NCI-H226 lung
[11] = tested on: NCI-H23 lung
[12] = tested on: OVCAR-3 ovarian
[13] = tested on: OVCAR-5 ovarian
[14] = tested on: PC-3 prostate
[15] = tested on: RPMI-8226 leukemia
[16] = tested on: RXF 393 renal
[17] = tested on: T-47D breast
[18] = tested on: UACC-257 melanoma
[19] = tested on: UACC-62 melanoma
[20] = tested on: UO-31 renal

SMILES | TGI [1] [µM] | TGI [2] [µM] | TGI [3] [µM] | TGI [4] [µM] | TGI [5] [µM] | TGI [6] [µM] | TGI [7] [µM] | TGI [8] [µM] | TGI [9] [µM] | TGI [10] [µM] | TGI [11] [µM] | TGI [12] [µM] | TGI [13] [µM] | TGI [14] [µM] | TGI [15] [µM] | TGI [16] [µM] | TGI [17] [µM] | TGI [18] [µM] | TGI [19] [µM] | TGI [20] [µM]
CC(C(=O)N1c2ccccc2Sc2ccccc21)N1c2ccccc2Sc2ccccc21 (stereo not given) | > 100 | > 100 | > 100 | > 100 | > 100 | > 100 | > 100 | > 100 | > 100 | > 100 | > 100 | > 100 | > 100 | > 100 | > 100 | > 100 | > 100 | > 100 | > 100 | > 100
COc1cc(C2c3cc4c(cc3[C@H](OCCN(C)C)[C@@H]3COC(=O)C23)OCO4)cc(OC)c1O (stereo not given in full) | 1.22 | 1.34 | 1.73 | 1.5 | 0.118 | 15.9 | 8.95 | 2.58 | 30 | 0.301 | 1.3 | 4.08 | 3.82 | 81.1 | > 100 | 1.55 | 2.52 | 11.4 | 0.496 | 1.71
N#CC1=C(N2CCCC2)NC(=O)CC1=O | > 100 | > 100 | > 100 | > 100 | > 100 | > 100 | > 100 | > 100 | > 100 | > 100 | > 100 | > 100 | > 100 | > 100 | > 100 | > 100 | > 100 | > 100 | > 100 | > 100
C[N+](C)(N)CCC[N+](C)(C)N | > 100 | > 100 | > 100 | > 100 | > 100 | > 100 | > 100 | > 100 | > 100 | > 100 | > 100 | > 100 | > 100 | > 100 | > 100 | > 100 | > 100 | > 100 | > 100 | > 100
C=C1CC[C@@]2(OC1)OC1C[C@H]3[C@@H]4CC=C5C[C@@H](O)CC(OC6OCC(OC(=O)[C@@H](O)[C@@H](C)CC)C(OC(C)=O)C6OC6OC(C)C(O)C(O)C6O)[C@]5(C)[C@H]4CC[C@]3(C)C1[C@@H]2C (stereo not given in full) | 3.44 | 4.73 | 3.43 | 6.51 | 4.87 | 4.71 | 5.13 | 4.45 | 3.51 | 6.01 | 6.57 | 3.77 | 4.89 | 3.16 | 4.89 | 4.48 | > 10 | 5.48 | 3.37 | 4.56
Cc1cccc2c(N)c3cccc(C(=O)NCCCNCCN)c3nc12 | 30.1 | 15 | > 70.4 | 33.2 | > 64.3 | > 100 | 19.5 | 28.4 | 27 | 9.15 | 10.9 | 63.2 | 38.4 | 35.3 | 37.3 | 18.6 | 24.8 | 31.1 | 19 | 46.8
O=C(CNc1ccc(Cl)cc1)Nn1c(-c2ccccc2)nc2ccccc2c1=O | 29.7 | 29.4 | 9.48 | 35.7 | 32.1 | 14.3 | 24.5 | 20.3 | 22.5 | 25.2 | 18 | 25.8 | 28.2 | 25.4 | 45.2 | 17.4 | 32.6 | 33.2 | 10.9 | 20.4
CCCN(CCCCC(NC(C)=O)C(=O)NCc1ccccc1)C(=O)N(CCCl)N=O (stereo not given) | > 100 | > 100 | > 100 | > 100 | > 86 | > 100 | > 100 | > 100 | > 100 | > 100 | 98.5 | > 100 | > 100 | > 100 | > 100 | 98.9 | > 100 | > 100 | > 100 | > 100
CCCN=C(NC(=O)c1ccc(Cl)cc1)SC | 99.8 | > 100 | > 100 | > 100 | > 100 | > 100 | > 100 | > 100 | > 100 | > 100 | > 100 | > 100 | > 100 | > 100 | > 100 | > 100 | > 100 | > 100 | > 100 | 46.4

— PubChem BioAssay (NCI)
